# Laboratory results from patent US20120178765A1, “NOVEL GLUCOKINASE ACTIVATORS AND PROCESSES FOR THE PREPARATION THEREOF” (YUHAN CORPORATION, priority 2009, published 2012).
# Molecular target: T1, Glucokinase (Homo sapiens, UniProt P35557)
# T1 construct: purchased ProteinOne Inc
# T1 sequence (P35557 1-465): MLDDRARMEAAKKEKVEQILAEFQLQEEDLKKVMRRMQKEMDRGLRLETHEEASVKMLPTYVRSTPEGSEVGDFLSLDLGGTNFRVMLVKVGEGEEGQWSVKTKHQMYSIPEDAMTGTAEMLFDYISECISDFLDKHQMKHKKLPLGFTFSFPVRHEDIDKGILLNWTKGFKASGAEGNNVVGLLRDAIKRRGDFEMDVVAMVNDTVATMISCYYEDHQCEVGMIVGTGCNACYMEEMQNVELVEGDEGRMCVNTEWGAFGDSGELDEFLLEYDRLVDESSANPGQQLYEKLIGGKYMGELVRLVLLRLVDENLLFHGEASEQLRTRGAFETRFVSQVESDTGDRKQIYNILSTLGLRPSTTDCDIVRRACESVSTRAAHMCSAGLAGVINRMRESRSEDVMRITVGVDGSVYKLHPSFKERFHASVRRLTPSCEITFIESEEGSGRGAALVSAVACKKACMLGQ
# Assay: Glucokinase activation assay (NADPH absorbance at 340 nm)
# Assay type: biochemical
# Details: glucokinase (ProteinOne Inc.), 5 mM D(+)-glucose, 24° C., 90 minutes
# Experimental: The amounts of glucokinase activation were determined by measuring the levels of NADPH (the final metabolite of glucose through glucokinase-mediated phospho-rylation) and then calculating to glucokinase activities.
# Glucokinase (ProteinOne Inc.) was added, in the concentration of 100 ng/uL, to a enzyme-reaction medium (25 mM HEPES pH 7, 25 mM KCL, 1 mM MgCl, 5 mM D(+)-glucose, 1 mM ATP, 1 mM NADP, 1 mM DTT, and 2.5 u/mL G6PDH). Each compound in predetermined concentrations was added to the enzyme-reaction medium and then absorbance (First Absorbance) was measured at 340 nm of wavelength. After measuring the first absorbance, each reaction mixture was incubated at 24° C. for 90 minutes and then absorbance (Second Absorbance) was re-measured at 340 nm of wavelength. Using changes between First Absorbance and Second Absorbance, glucokinase activity was calculated. In the calculation, a maximum activity of the test compound (Emax), in comparison to the control group (no treatment of compound) was determined and then EC50 was calculated using the software for statistical analysis “Prism”, based on the activity-changes according to concentrations of the test compounds.
# The amounts of glucokinase activation of the compounds of Comparative Examples 1 and 2 were determined, in accordance with the same procedures as in Test Example 1.
row,Substance,EC50 [nM]
1,"3-[trans-2-(2,5-difluorophenyl)vinyl]-5-(2-methoxy-(1S)-methyl-ethoxy)-N-(pyrazin-2-yl)-benzamide [Example 57]",283
2,3-[trans-2-(2-bromophenyl)vinyl]-5-(2-methoxy-(1S)-methyl-ethoxy)-N-(1-methyl-1H-pyrazol-3-yl)-benzamide [Example 43],322
3,3-[trans-2-(2-chlorophenyl)vinyl]-5-(2-methoxy-(1S)-methyl-ethoxy)-N-(pyrazin-2-yl)-benzamide [Example 53],503
4,3-[trans-2-(2-methoxyphenyl)vinyl]-5-(2-methoxy-(1S)-methyl-ethoxy)-N-(pyrazin-2-yl)-benzamide [Example 48],281
5,3-[trans-2-(2-nitrophenyl)vinyl]-5-(2-methoxy-(1S)-methyl-ethoxy)-N-(1-methyl-1H-pyrazol-3-yl)-benzamide [Example 32],284
6,"3-[trans-2-(3,5-dimethoxyphenyl)vinyl]-5-(2-methoxy-(1S)-methyl-ethoxy)-N-(pyrazin-2-yl)-benzamide [Example 50]",311
7,3-[trans-2-(3-bromophenyl)vinyl]-5-(2-methoxy-(1S)-methyl-ethoxy)-N-(pyrazin-2-yl)-benzamide [Example 59],377
8,3-[trans-2-(3-chlorophenyl)vinyl]-5-(2-methoxy-(1S)-methyl-ethoxy)-N-(pyrazin-2-yl)-benzamide [Example 54],382
9,3-[trans-2-(4-bromophenyl)vinyl]-5-(2-methoxy-(1S)-methyl-ethoxy)-N-(pyrazin-2-yl)-benzamide [Example 60],397
10,3-[trans-2-(4-fluorophenyl)vinyl]-5-(2-methoxy-(1S)-methyl-ethoxy)-N-(pyrazin-2-yl)-benzamide [Example 52],420
11,3-[trans-2-(4-methoxyphenyl)vinyl]-5-(2-methoxy-(1S)-methyl-ethoxy)-N-(1-methyl-1H-pyrazol-3-yl)-benzamide [Example 41],245
12,3-[trans-2-(4-methoxyphenyl)vinyl]-5-(2-methoxy-(1S)-methyl-ethoxy)-N-(pyrazin-2-yl)-benzamide [Example 49],381
13,3-[trans-2-(4-nitrophenyl)vinyl]-5-(2-methoxy-(1S)-methyl-ethoxy)-N-(5-fluorothiazol-2-yl)-benzamide [Example 21],336
14,3-{2-[3-(2-(thiophen-2-yl)acetylamino)phenyl]ethyl}-5-(2-methoxy-(1S)-methyl-ethoxy)-N-(thiazol-2-yl)-benzamide [Example 129],271
15,3-{2-[3-(3-ethyl-thio-ureido)phenyl]ethyl}-5-(2-methoxy-(1S)-methyl-ethoxy)-N-(thiazol-2-yl)-benzamide [Example 131],491
16,3-{2-[3-(3-methyl-butyrylamino)phenyl]ethyl}-5-(2-methoxy-(1S)-methyl-ethoxy)-N-(thiazol-2-yl)-benzamide [Example 120],473
17,3-{2-[3-(4-chlorobenzoylamino)phenyl]ethyl}-5-(2-methoxy-(1S)-methyl-ethoxy)-N-(t hiazol-2-yl)-benzamide [Example 126],364
18,3-{2-[3-(4-fluorobenzoylamino)phenyl]ethyl}-5-(2-methoxy-(1S)-methyl-ethoxy)-N-(thiazol-2-yl)-benzamide [Example 125],340
19,3-{2-[3-(4-nitrobenzoylamino)phenyl]ethyl}-5-(2-methoxy-(1S)-methyl-ethoxy)-N-(thiazol-2-yl)-benzamide [Example 127],266

# Further lines, results first:
row,EC50 [nM],Substance
1,46.5,"3-[trans-2-(2,5-difluorophenyl)vinyl]-5-(2-methoxy-(1S)-methyl-ethoxy)-N-(5-fluorothiazol-2-yl)-benzamide [Example 26]"
2,30.9,"3-[trans-2-(2,5-difluorophenyl)vinyl]-5-(2-methoxy-(1S)-methyl-ethoxy)-N-(thiazol-2-yl)-benzamide [Example 11]"
3,212,"3-[trans-2-(2,6-difluorophenyl)vinyl]-5-(2-methoxy-(1S)-methyl-ethoxy)-N-(pyrazin-2-yl)-benzamide [Example 58]"
4,128,"3-[trans-2-(2,6-dimethoxyphenyl)vinyl]-5-(2-methoxy-(1S)-methyl-ethoxy)-N-(5-fluorothiazol-2-yl)-benzamide [Example 29]"
5,79.8,3-[trans-2-(2-fluorophenyl)vinyl]-5-(2-methoxy-(1S)-methyl-ethoxy)-N-(1-methyl-1H-pyrazol-3-yl)-benzamide [Example 33]
6,65.6,3-[trans-2-(2-fluorophenyl)vinyl]-5-(2-methoxy-(1S)-methyl-ethoxy)-N-(5-fluorothiazol-2-yl)-benzamide [Example 22]
7,238,3-[trans-2-(2-fluorophenyl)vinyl]-5-(2-methoxy-(1S)-methyl-ethoxy)-N-(pyrazin-2-yl)-benzamide [Example 51]
8,115,3-[trans-2-(2-methoxyphenyl)vinyl]-5-(2-methoxy-(1S)-methyl-ethoxy)-N-(1-methyl-1 H-pyrazol-3-yl)-benzamide [Example 42]
9,115,3-[trans-2-(2-methoxyphenyl)vinyl]-5-(2-methoxy-(1S)-methyl-ethoxy)-N-(1-methyl-1H-pyrazol-3-yl)-benzamide [Example 83]
10,91.8,3-[trans-2-(2-methoxyphenyl)vinyl]-5-(2-methoxy-(1S)-methyl-ethoxy)-N-(5-fluorothiazol-2-yl)-benzamide [Example 82]
11,8.4,3-[trans-2-(2-methoxyphenyl)vinyl]-5-(2-methoxy-(1S)-methyl-ethoxy)-N-(thiazol-2-yl)-benzamide [Example 16]
12,52.1,3-[trans-2-(2-nitrophenyl)vinyl]-5-(2-methoxy-(1S)-methyl-ethoxy)-N-(5-fluorothiazol-2-yl)-benzamide [Example 19]
13,132,"3-[trans-2-(3,4-dimethoxyphenyl)vinyl]-5-(2-methoxy-(1S)-methyl-ethoxy)-N-(5-fluorothiazol-2-yl)-benzamide [Example 30]"
14,47.3,"3-[trans-2-(3,5-dimethoxyphenyl)vinyl]-5-(2-methoxy-(1S)-methyl-ethoxy)-N-(5-fluorothiazol-2-yl)-benzamide [Example 31]"
15,107,3-[trans-2-(3-chlorophenyl)vinyl]-5-(2-methoxy-(1S)-methyl-ethoxy)-N-(1-methyl-1H-pyrazol-3-yl)-benzamide [Example 47]
16,48.4,3-[trans-2-(3-fluorophenyl)vinyl]-5-(2-methoxy-(1S)-methyl-ethoxy)-N-(thiazol-2-yl)-benzamide [Example 7]
17,123,3-[trans-2-(3-nitrophenyl)vinyl]-5-(2-methoxy-(1S)-methyl-ethoxy)-N-(5-fluorothiazol-2-yl)-benzamide [Example 20]
18,19.4,3-[trans-2-(3-nitrophenyl)vinyl]-5-(2-methoxy-(1S)-methyl-ethoxy)-N-(thiazol-2-yl)-benzamide [Example 14]
19,181,3-[trans-2-(4-bromophenyl)vinyl]-5-(2-methoxy-(1S)-methyl-ethoxy)-N-(1-methyl-1H-pyrazol-3-yl)-benzamide [Example 45]
20,119,3-[trans-2-(4-fluorophenyl)vinyl]-5-(2-methoxy-(1S)-methyl-ethoxy)-N-(1-methyl-1H-pyrazol-3-yl)-benzamide [Example 39]
21,41.1,3-[trans-2-(4-fluorophenyl)vinyl]-5-(2-methoxy-(1S)-methyl-ethoxy)-N-(5-fluorothiazol-2-yl)-benzamide [Example 23]
22,86.4,3-[trans-2-(4-fluorophenyl)vinyl]-5-(2-methoxy-(1S)-methyl-ethoxy)-N-(thiazol-2-yl)-benzamide [Example 8]
23,127,3-[trans-2-(4-nitrophenyl)vinyl]-5-(2-methoxy-(1S)-methyl-ethoxy)-N-(thiazol-2-yl)-benzamide [Example 15]
24,227,3-{2-[3-(3-phenyl-ureido)phenyl]ethyl}-5-(2-methoxy-(1S)-methyl-ethoxy)-N-(thiazol-2-yl)-benzamide [Example 130]
25,225,3-{2-[3-(phenylacetylamino)phenyl]ethyl}-5-(2-methoxy-(1S)-methyl-ethoxy)-N-(thiazol-2-yl)-benzamide [Example 123]
